The target in experiment [1] is T1, BRD4 bromo domain 1 [BRD4(1)] (Homo sapiens, UniProt O60885).
T1 construct: N-terminally His6-tagged BRD4(1) (amino acids 67-152); made in house; host or cells: E. coli
Put plainly: BRD4(1)/acetylated peptide H4 binding assay (TR-FRET). Particulars: inhibition of interaction between His6-tagged BRD4(1) (amino acids 67-152) and acetylated histone H4 peptide. The text has this:
(§1) Protein-Protein Interaction Assay: BRD4/Acetylated Peptide H4 Binding Assay
1. Assay Description for BRD4 Bromo Domain 1 [BRD4(1)]
To assess the BRD4(1) binding strength of the substances described in this application, the ability thereof to inhibit the interaction between BRD4(1) and acetylated histone H4 in a dose-dependent manner was quantified.
(§2) For this purpose, a time-resolved fluorescence resonance energy transfer (TR-FRET) assay was used, which measures the binding between N-terminally His6-tagged BRD4(1) (amino acids 67-152) and a synthetic acetylated histone H4 (Ac-H4) peptide with sequence GRGK(Ac)GGK(Ac)GLGK(Ac)GGAK(Ac)RHGSGSK-biotin. The recombinant BRD4(1) protein produced in-house according to Filippakopoulos et al., Cell, 2012, 149:214-231 was expressed in E. coli and purified by means of (Ni-NTA) affinity and (Sephadex G-75) size exclusion chromatography. The Ac-H4 peptide can be purchased, for example, from Biosyntan (Berlin, Germany).
(§3) In the assay, typically 11 different concentrations of each substance (0.1 nM, 0.33 nM, 1.1 nM, 3.8 nM, 13 nM, 44 nM, 0.15 μM, 0.51 μM, 1.7 μM, 5.9 μM and 20 μM) were analysed as duplicates on the same microtitre plate. For this purpose, 100-fold concentrated solutions in DMSO were prepared by serial dilutions (1:3.4) of a 2 mM stock solution into a clear, 384-well microtitre plate (Greiner Bio-One, Frickenhausen, Germany). From this, 50 nl were transferred into a black test plate (Greiner Bio-One, Frickenhausen, Germany). The test was started by the addition of 2 μl of a 2.5-fold concentrated BRD4(1) solution (final concentration typically 10 nM in the 5 μl of reaction volume) in aqueous assay buffer [50 mM HEPES pH 7.5, 50 mM sodium chloride (NaCl), 0.25 mM CHAPS and 0.05% serum albumin (BSA)] to the substances in the test plate. This was followed by a 10-minute incubation step at 22° C. for the pre-equilibration of putative complexes between BRD4(1) and the substances.
(§4) The mixture was then incubated in the dark at 22° C. for one hour and then at 4° C. for at least 3 hours and for no longer than overnight. The formation of BRD4(1)/Ac-H4 complexes was determined by the measurement of the resonance energy transfer from the streptavidin-Eu cryptate to the anti-6His-XL665 antibody present in the reaction. For this purpose, the fluorescence emission was measured at 620 nm and 665 nm after excitation at 330-350 nm in a TR-FRET measuring instrument, for example a Rubystar or Pherastar (both from BMG Lab Technologies, Offenburg, Germany) or a Viewlux (Perkin-Elmer). The ratio of the emissions at 665 nm and at 622 nm was taken as an indicator of the amount of BRD4(1)/Ac-H4 complexes formed.
The data (ratios) obtained were normalized, with 0% inhibition corresponding to the mean from the measurements for a set of controls (typically 32 data points) in which all the reagents were present. In these, in place of test substances, 50 nl of DMSO (100%) were used. Inhibition of 100% corresponded to the mean from the measurements for a set of controls (typically 32 data points) in which all the reagents except BRD4(1) were present. The IC50 was determined by regression analysis based on a 4-parameter equation (minimum, maximum, IC50, Hill; Y=max+(min−max)/(1+(X/IC50)Hill).

Experiment [2] has as its target T2, BRD4 bromo domain 2 [BRD4(2)] (Homo sapiens, UniProt O60885).
T2 construct: N-terminally His6-tagged BRD4(2) (amino acids 357-445); made in house; host or cells: E. coli
Put plainly: BRD4(2)/acetylated peptide H4 binding assay (TR-FRET). Conditions: inhibition of interaction between His6-tagged BRD4(2) (amino acids 357-445) and acetylated histone H4 peptide.
Excerpt: as §1
2. Assay Description for BRD4 Bromo Domain 2 [BRD4(2)]
To assess the BRD4(2) binding strength of the substances described in this application, the ability thereof to inhibit the interaction between BRD4(2) and acetylated histone H4 in a dose-dependent manner was quantified.
as §2, with “BRD4(2)” for “BRD4(1)”, “357-445)” for “67-152)”, “SGRGK(Ac)GGK(Ac)GLGK(Ac)GGAK(Ac)RHRKVLRDNGSGSK-biotin.” for “GRGK(Ac)GGK(Ac)GLGK(Ac)GGAK(Ac)RHGSGSK-biotin.”
as §3, with “concentrated BRD4(2)” for “concentrated BRD4(1)”, “typically 100” for “typically 10”, “chloride (NaCl); 50 mM potassium fluoride (KF);” for “chloride (NaCl),”, “between BRD4(2)” for “between BRD4(1)”
as §4, with “BRD4(2)/Ac-H4” for “BRD4(1)/Ac-H4”, “chelate” for “cryptate”
The data (ratios) obtained were normalized, with 0% inhibition corresponding to the mean from the measurements for a set of controls (typically 32 data points) in which all the reagents were present. In these, in place of test substances, 50 nl of DMSO (100%) were used. Inhibition of 100% corresponded to the mean from the measurements for a set of controls (typically 32 data points) in which all the reagents except BRD4(2) were present. The IC50 was determined by regression analysis based on a 4-parameter equation (minimum, maximum, IC50, Hill; Y=max+(min−max)/(1+(X/IC50)Hill).

We go through twelve compounds from patent US20160193206A1, “BET-PROTEIN-INHIBITING DIHYDROPYRIDOPYRAZINONES” (BAYER PHARMA AKTIENGESELLSCHAFT, priority 2012, published 2016).

Regarding `COc1cc(C(=O)NC2CCN(C)CC2)ccc1Nc1ccc2c(n1)N(C1CCCCC1)[C@H](C)C(=O)N2C` [Example 12, 4-{[(3R)-4-Cyclohexyl-1,3-dimethyl-2-oxo-1,2,3,4-tetrahydropyrido[2,3-b]pyrazin-6-yl]amino}-3-methoxy-N-(1-methylpiperidin-4-yl)benzamide], the IC50 in experiment [1] is 0.104 µM; in experiment [2] it was 0.111 µM.
The corresponding values for `CC(C)N1CCN(S(=O)(=O)c2ccc(Nc3ccc4c(n3)N(C3CCOCC3)[C@H](C)C(=O)N4C)cc2)CC1` [Example 16, (3R)-1,3-Dimethyl-6-[(4-{[4-(propan-2-yl)piperazin-1-yl]sulphonyl}phenyl)amino]-4-(tetrahydro-2H-pyran-4-yl)-3,4-dihydropyrido[2,3-b]pyrazin-2(1H)-one] are 0.286 µM and 0.212 µM.
As to `C[C@@H]1C(=O)N(C)c2ccc(Nc3ccc(S(=O)(=O)N(C)C)cc3)nc2N1C1CCCCC1` [Example 17, 4-{[(3R)-4-Cyclohexyl-1,3-dimethyl-2-oxo-1,2,3,4-tetrahydropyrido[2,3-b]pyrazin-6-yl]amino}-N,N-dimethylbenzenesulphonamide], the results for the IC50 in experiment [1] and in experiment [2] were 0.308 µM and 0.111 µM, respectively.
Regarding `C[C@@H]1C(=O)N(C)c2ccc(Nc3ccc(S(=O)(=O)NCCc4cccnc4)cc3)nc2N1C1CCOCC1` [Example 19, 4-{[(3R)-1,3-dimethyl-2-oxo-4-(tetrahydro-2H-pyran-4-yl)-1,2,3,4-tetrahydropyrido[2,3-b]pyrazin-6-yl]amino}-N-[2-(pyridin-3-yl)ethyl]benzene-sulphonamide], the results for the IC50 in experiment [1] and in experiment [2] were 0.219 µM and 0.185 µM, respectively.
The corresponding values for `COc1cc(C(=O)N2CCN(C(C)C)CC2)ccc1Nc1ccc2c(n1)N(C1CCCCC1)[C@H](C)C(=O)N2C` [Example 28, (3R)-4-Cyclohexyl-6-[(2-methoxy-4-{[4-(propan-2-yl)piperazin-1-yl]carbonyl}phenyl)amino]-1,3-dimethyl-3,4-dihydropyrido[2,3-b]pyrazin-2(1H)-one] are 0.195 µM and 0.116 µM.
The corresponding values for `C[C@@H]1C(=O)N(C)c2ccc(Nc3ccc(C(=O)N4CC5(CCS5(=O)=O)C4)cc3)nc2N1C1CCCCC1` [Example 29, (3R)-4-Cyclohexyl-6-({4-[(1,1-dioxido-1-thia-6-azaspiro[3.3]hept-6-yl)carbonyl]phenyl}amino)-1,3-dimethyl-3,4-dihydropyrido[2,3-b]pyrazin-2(1H)-one] are 0.242 µM and 0.149 µM.
`CC(C)N1CCN(C(=O)c2ccc(Nc3ccc4c(n3)N(C3CCCCC3)[C@H](C)C(=O)N4C)cc2)CC1` [Example 31, (3R)-4-Cyclohexyl-1,3-dimethyl-6-[(4-{[4-(propan-2-yl)piperazin-1-yl]carbonyl}phenyl)amino]-3,4-dihydropyrido[2,3-b]pyrazin-2(1H)-one]: the IC50 in experiment [1] stood at 0.241 µM; in experiment [2], 0.108 µM.
The like results for `COc1cc(C(=O)N2CC3(COC3)C2)ccc1Nc1ccc2c(n1)N(C1CCCCCC1)[C@H](C)C(=O)N2C` [Example 32, (3R)-4-Cycloheptyl-6-{[2-methoxy-4-(2-oxa-6-azaspiro[3.3]hept-6-ylcarbonyl)phenyl]amino}-1,3-dimethyl-3,4-dihydropyrido[2,3-b]pyrazin-2(1H)-one] were, in that order, 0.376 µM and 0.077 µM.
For `C[C@@H]1C(=O)N(C)c2ccc(Nc3ccc(C(=O)N4CC5(CCS5(=O)=O)C4)cc3)nc2N1C1CCCCCC1` [Example 33, (3R)-4-Cycloheptyl-6-({4-[(1,1-dioxido-1-thia-6-azaspiro[3.3]hept-6-yl)carbonyl]phenyl}amino)-1,3-dimethyl-3,4-dihydropyrido[2,3-b]pyrazin-2(1H)-one], the IC50 in experiment [1] came to 0.329 µM; in experiment [2] it was 0.08 µM.
Take `C[C@@H]1C(=O)N(C)c2ccc(Nc3ccc(C(=O)NCc4ccccn4)cc3)nc2N1C1CCOCC1` [Example 35, 4-{[(3R)-1,3-Dimethyl-2-oxo-4-(tetrahydro-2H-pyran-4-yl)-1,2,3,4-tetrahydropyrido[2,3-b]pyrazin-6-yl]amino}-N-(pyridin-2-ylmethyl)benzamide]: the concentration for half-maximal inhibition (IC50) in experiment [1] came out at 0.119 µM; in experiment [2], 0.237 µM.
The corresponding values for `Cc1cc(C(=O)N2CCN(C)CC2)ccc1Nc1ccc2c(n1)N(C1CCOCC1)[C@H](C)C(=O)N2C` [Example 36, (3R)-1,3-Dimethyl-6-({2-methyl-4-[(4-methylpiperazin-1-yl)carbonyl]phenyl}amino)-4-(tetrahydro-2H-pyran-4-yl)-3,4-dihydropyrido[2,3-b]pyrazin-2(1H)-one] are 0.257 µM and 0.245 µM.
Turning to `COc1cc(C(=O)NC2CCN(C(C)=O)CC2)ccc1Nc1ccc2c(n1)N(C1CCCCC1)[C@H](C)C(=O)N2C` [Example 39, N-(1-Acetylpiperidin-4-yl)-4-{[(3R)-4-cyclohexyl-1,3-dimethyl-2-oxo-1,2,3,4-tetrahydropyrido[2,3-b]pyrazin-6-yl]amino}-3-methoxybenzamide], the IC50 was 0.329 µM in experiment [1] and 0.145 µM in experiment [2].
